Measurements reported in patent US20100280125A1, “MEDICINAL AGENT” (priority 2004, published 2010).

Experiments:
[1] = system: human malignant melanoma A 375; assay: replication of melanoma cells in test glasses; assay type: cell-based; details: a week at 37° C. in the dark, in comparison to physiological salt solution
Protocol: In addition, a third control group of test glasses (6 glasses) was formed with the same cancer cell pool and fibroblasts, into which adriamycin and cyclophosphan in the same dilution was introduced, as well as a corresponding test glass group with a physiological salt solution.
After thermostatization of the above-mentioned test glasses for a week at 37° C. (in the dark), the contents were analyzed.

melanoma 16 = assay type: in vivo, mice; details: for mice survived as far as the 36th day: control sub groups of 10 mice, 5 mg in water solution as a drink; for findings during the dissection: first and second sub group of the control group, 5 mg as a drink
Protocol: B57 type mice in the test and control group (60 mice each) were injected with melanoma 16. The test group were divided into 6 sub groups and the control group was divided into 3 sub groups, each with 10 mice.

[2] = system: cancer of the right ovary (recidiv); assay: treatment of patient I, recidiv of ovary cancer; assay type: in vivo, human
Protocol: Exstirpation of the uterus and the surrounding area on account of cancer of the right ovary was performed on patient I who was […] and had visited the doctor in November 2002. The tomogram that was dated 28 Aug.
The patient was treated with an enema of the rectum: over five days once a day, after five procedures once every other day and thereafter every third day for 15 enemas. They were treated with a single dose of 20 mg medicinal agent (B.V.2) per 15-20 ml water, diluted in 2 ml 70% ethyl alcohol.

papillary thyroid cancer = assay: treatment of patient R, papillary thyroid cancer; assay type: in vivo, human
Protocol: The patient was treated with the medicinal agent (B.V.2) for 2 weeks; one gelatine capsule two times a day with 20 mg medicinal agent perorally after food and enemas in a single dose of 100 ml solution, comprising 50 mg medicinal agent powder, diluted in 2 ml 70% ethyl alcohol and dissolved in 100 ml water solution with 0.9% NaCl.

[3] = 3 hours after taking the dose, over 7 days

O=P1(N(CCCl)CCCl)NCCCO1 (stereo not shown) [cyclophosphan]
suppression of the replication of the melanoma cells ([1]; dilution of 10^−7 mmol/l): 55%
suppression of the replication of the melanoma cells ([1]; dilution of 10^−9 mmol/l): 35%
mice survived as far as the 36th day (melanoma 16): 5 mice
findings during the dissection (melanoma 16): lung and liver injuries

COc1cccc2c1C(=O)c1c(O)c3c(c(O)c1C2=O)C[C@@](O)(C(=O)CO)C[C@@H]3O[C@H]1C[C@H](N)[C@H](O)[C@H](C)O1 [adriamycin]
suppression of the replication of the melanoma cells ([1]; dilution of 10^−7 mmol/l): 42%
suppression of the replication of the melanoma cells ([1]; dilution of 10^−9 mmol/l): 30%
mice survived as far as the 36th day (melanoma 16): 2 mice
findings during the dissection (melanoma 16): lung and liver injuries

hexamethyl pararosanilin chloride [methyl violet 10B]
growth in control investigation using ultrasound ([2]; 2 Mar. 2004): no longer to be found
erythrocytes ([2]; after the treatment, before 2.5 million): 5.5 million
thrombocytes ([2]; after the treatment, before 110,000): 300,000
leucocytes ([2]; after the treatment, before up to 10,000): 9,000
duration of the dissymmetric effect (papillary thyroid cancer): 1.0 to 1.5 h
ultrasound investigation after the treatment (papillary thyroid cancer; 2 weeks, capsules 20 mg two times a day and enemas 50 mg, growth 5×3×1.7 cm before): a primary growth and no metastases
temperature on the left side of the body (dissymmetric effect) (papillary thyroid cancer; [3]): 37.3-38.6 °C
temperature on the right side of the body (dissymmetric effect) (papillary thyroid cancer; [3]): 35.4-36.9 °C
